Experimental data from patent US11713344B2 (DONG-A ST CO., LTD., priority 2017, dated 2023).

Columns and labels:
Human GLP-1 receptors = Human GLP-1 receptors (Homo sapiens, UniProt P43220); experiment: GLP-1 receptor activation assay (CRE-luciferase reporter, CHO-K1)
Human glucagon receptors = Human glucagon receptors (Homo sapiens, UniProt P47871); experiment: Glucagon receptor activation assay (CRE-luciferase reporter, CHO-K1)
Human glucagon receptors, sequence (P47871 26-477): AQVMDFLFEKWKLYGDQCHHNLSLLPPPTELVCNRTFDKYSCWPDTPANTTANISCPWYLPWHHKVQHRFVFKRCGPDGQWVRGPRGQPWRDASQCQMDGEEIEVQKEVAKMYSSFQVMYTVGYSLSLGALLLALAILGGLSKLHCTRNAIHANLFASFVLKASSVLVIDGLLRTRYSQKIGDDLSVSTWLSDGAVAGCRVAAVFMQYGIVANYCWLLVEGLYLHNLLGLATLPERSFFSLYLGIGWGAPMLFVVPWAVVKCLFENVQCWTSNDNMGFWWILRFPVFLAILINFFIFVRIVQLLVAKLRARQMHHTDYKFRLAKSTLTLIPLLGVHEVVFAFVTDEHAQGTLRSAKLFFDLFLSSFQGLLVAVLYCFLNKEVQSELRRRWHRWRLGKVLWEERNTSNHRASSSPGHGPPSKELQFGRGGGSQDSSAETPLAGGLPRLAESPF

Human GLP-1 receptors, sequence (P43220 24-463): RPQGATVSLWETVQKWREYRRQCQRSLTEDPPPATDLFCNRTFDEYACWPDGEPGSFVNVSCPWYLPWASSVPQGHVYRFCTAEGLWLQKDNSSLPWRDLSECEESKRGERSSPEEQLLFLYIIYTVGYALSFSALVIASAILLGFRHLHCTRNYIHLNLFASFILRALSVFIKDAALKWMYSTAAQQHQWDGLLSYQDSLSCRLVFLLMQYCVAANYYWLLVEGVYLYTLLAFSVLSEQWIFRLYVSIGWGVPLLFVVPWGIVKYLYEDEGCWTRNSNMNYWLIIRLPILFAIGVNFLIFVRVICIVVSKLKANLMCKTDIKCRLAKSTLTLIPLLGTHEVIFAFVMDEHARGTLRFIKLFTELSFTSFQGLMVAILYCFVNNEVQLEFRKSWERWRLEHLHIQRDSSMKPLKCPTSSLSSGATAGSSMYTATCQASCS

CCCCCCCCCCCCCCCCCC(=O)N[C@@H](CCC(=O)NCCOCCOCC(=O)NCCOCCOCC(=O)NCCCC[C@H](NC(=O)[C@H](CC(=O)O)NC(=O)[C@H](CO)NC(=O)[C@@H](NC(=O)[C@H](Cc1ccccc1)NC(=O)[C@@H](NC(=O)CNC(=O)[C@H](CCC(N)=O)NC(=O)C(C)(C)NC(=O)[C@@H](N)Cc1c[nH]cn1)[C@@H](C)O)[C@@H](C)O)C(=O)N[C@@H](CO)C(=O)N[C@@H](CCCCN)C(=O)N[C@@H](Cc1ccc(O)cc1)C(=O)N[C@@H](CC(C)C)C(=O)N[C@@H](CC(=O)O)C(=O)N[C@H]1CCC(=O)NCCCC[C@@H](C(=O)N[C@@H](CC(=O)O)C(=O)N[C@@H](Cc2ccccc2)C(=O)N[C@H](C(=O)N[C@@H](CCC(N)=O)C(=O)N[C@@H](Cc2c[nH]c3ccccc23)C(=O)N[C@@H](CC(C)C)C(=O)N[C@@H](CCSC)C(=O)N[C@@H](CC(N)=O)C(=O)N[C@H](C(=O)N[C@@H](CCCCN)C(=O)O)[C@@H](C)O)C(C)C)NC(=O)[C@H](C)NC(=O)[C@H](CCCNC(=N)N)NC(=O)[C@H](CCCNC(=N)N)NC1=O)C(=O)O [Compound 14, H-HAibQGTFTSDZSKYLDERRAKDFVQWLMNTK-OH]
EC50 (Human GLP-1 receptors): < 0.01 nM
EC50 (Human glucagon receptors): < 0.01 nM

CCCCCCCCCCCCCCCCCC(=O)N[C@@H](CCC(=O)NCCOCCOCC(=O)NCCOCCOCC(=O)NCCCC[C@H](NC(=O)[C@H](CC(=O)O)NC(=O)[C@H](CC(C)C)NC(=O)[C@H](Cc1ccc(O)cc1)NC(=O)[C@H](CCCCN)NC(=O)[C@H](CO)NC(=O)[C@H](Cc1ccc(O)cc1)NC(=O)[C@H](CC(=O)O)NC(=O)[C@H](CO)NC(=O)[C@@H](NC(=O)[C@H](Cc1ccccc1)NC(=O)[C@@H](NC(=O)CNC(=O)[C@H](CCC(N)=O)NC(=O)C(C)(C)NC(=O)[C@@H](N)Cc1c[nH]cn1)[C@@H](C)O)[C@@H](C)O)C(=O)N[C@@H](CCCNC(=N)N)C(=O)N[C@@H](CCCNC(=N)N)C(=O)N[C@@H](C)C(=O)N[C@@H](CCC(N)=O)C(=O)N[C@@H](CC(=O)O)C(=O)N[C@@H](Cc1ccccc1)C(=O)N[C@H](C(=O)N[C@@H](CCC(N)=O)C(=O)N[C@@H](Cc1c[nH]c2ccccc12)C(=O)N[C@@H](CC(C)C)C(=O)N[C@@H](CCSC)C(=O)N[C@@H](CC(N)=O)C(=O)N[C@H](C(=O)N[C@@H](CCCCN)C(=O)O)[C@@H](C)O)C(C)C)C(=O)O [Compound 15, H-HAibQGTFTSDYSKYLDZRRAQDFVQWLMNTK-OH]
EC50 (Human GLP-1 receptors): < 0.01 nM
EC50 (Human glucagon receptors): < 0.01 nM

CCCCCCCCCCCCCCCCCC(=O)N[C@@H](CCC(=O)NCCOCCOCC(=O)NCCOCCOCC(=O)NCCCC[C@H](NC(=O)[C@H](C)NC(=O)[C@H](CCCNC(=N)N)NC(=O)[C@H](CCCNC(=N)N)NC(=O)C(C)(C)NC(=O)[C@H](CC(=O)O)NC(=O)[C@H](CC(C)C)NC(=O)[C@H](Cc1ccc(O)cc1)NC(=O)[C@H](CCCCN)NC(=O)[C@H](CO)NC(=O)[C@H](Cc1ccc(O)cc1)NC(=O)[C@H](CC(=O)O)NC(=O)[C@H](CO)NC(=O)[C@@H](NC(=O)[C@H](Cc1ccccc1)NC(=O)[C@@H](NC(=O)CNC(=O)[C@H](CCC(N)=O)NC(=O)C(C)(C)NC(=O)[C@@H](N)Cc1c[nH]cn1)[C@@H](C)O)[C@@H](C)O)C(=O)N[C@@H](CC(=O)O)C(=O)N[C@@H](Cc1ccccc1)C(=O)N[C@H](C(=O)N[C@@H](CCC(N)=O)C(=O)N[C@@H](Cc1c[nH]c2ccccc12)C(=O)N[C@@H](CC(C)C)C(=O)N[C@@H](CCSC)C(=O)N[C@@H](CC(N)=O)C(=O)N[C@H](C(=O)N[C@@H](CCCCN)C(=O)O)[C@@H](C)O)C(C)C)C(=O)O [Compound 16]
EC50 (Human GLP-1 receptors): < 0.01 nM
EC50 (Human glucagon receptors): < 0.01 nM

CCCCCCCCCCCCCCCCCC(=O)N[C@@H](CCC(=O)NCCOCCOCC(=O)NCCOCCOCC(=O)NCCCC[C@H](NC(=O)[C@H](CC(=O)O)NC(=O)[C@H](CO)NC(=O)[C@@H](NC(=O)[C@H](Cc1ccccc1)NC(=O)[C@@H](NC(=O)CNC(=O)[C@H](CCC(N)=O)NC(=O)C(C)(C)NC(=O)[C@@H](N)Cc1c[nH]cn1)[C@@H](C)O)[C@@H](C)O)C(=O)N[C@@H](CO)C(=O)N[C@@H](CCCCN)C(=O)N[C@@H](Cc1ccc(O)cc1)C(=O)N[C@@H](CC(C)C)C(=O)N[C@@H](CC(=O)O)C(=O)N[C@H]1CCC(=O)NCCCC[C@@H](C(=O)N[C@@H](CC(=O)O)C(=O)N[C@@H](Cc2ccccc2)C(=O)N[C@H](C(=O)N[C@@H](CCC(N)=O)C(=O)N[C@@H](Cc2c[nH]c3ccccc23)C(=O)N[C@@H](CC(C)C)C(=O)N[C@@H](CCSC)C(=O)N[C@@H](CC(N)=O)C(=O)N[C@H](C(=O)N[C@@H](CCCCN)C(N)=O)[C@@H](C)O)C(C)C)NC(=O)[C@H](C)NC(=O)[C@H](CCCNC(=N)N)NC(=O)[C@H](CCCNC(=N)N)NC1=O)C(=O)O [Compound 19, H-HAibQGTFTSDZSKYLDERRAKDFVQWLMNTK-NH2]
EC50 (Human GLP-1 receptors): < 0.01 nM
EC50 (Human glucagon receptors): < 0.01 nM

CCCCCCCCCCCCCCCCCC(=O)N[C@@H](CCC(=O)NCCOCCOCC(=O)NCCOCCOCC(=O)NCCOCCOCC(=O)NCCCC[C@H](NC(=O)[C@H](CC(=O)O)NC(=O)[C@H](CO)NC(=O)[C@@H](NC(=O)[C@H](Cc1ccccc1)NC(=O)[C@@H](NC(=O)CNC(=O)[C@H](CCC(N)=O)NC(=O)C(C)(C)NC(=O)[C@@H](N)Cc1c[nH]cn1)[C@@H](C)O)[C@@H](C)O)C(=O)N[C@@H](CO)C(=O)N[C@@H](CCCCN)C(=O)N[C@@H](Cc1ccc(O)cc1)C(=O)N[C@@H](CC(C)C)C(=O)N[C@@H](CC(=O)O)C(=O)N[C@H]1CCC(=O)NCCCC[C@@H](C(=O)N[C@@H](CC(=O)O)C(=O)N[C@@H](Cc2ccccc2)C(=O)N[C@H](C(=O)N[C@@H](CCC(N)=O)C(=O)N[C@@H](Cc2c[nH]c3ccccc23)C(=O)N[C@@H](CC(C)C)C(=O)N[C@@H](CCSC)C(=O)N[C@@H](CC(N)=O)C(=O)N[C@H](C(=O)N[C@@H](CCCCN)C(=O)O)[C@@H](C)O)C(C)C)NC(=O)[C@H](C)NC(=O)[C@H](CCCNC(=N)N)NC(=O)[C@H](CCCNC(=N)N)NC1=O)C(=O)O [Compound 20, H-HAibQGTFTSDZSKYLDERRAKDFVQWLMNTK-OH]
EC50 (Human GLP-1 receptors): < 0.01 nM
EC50 (Human glucagon receptors): < 0.01 nM

CCCCCCCCCCCCCCCCCC(=O)N[C@@H](CCC(=O)NCCOCCOCC(=O)NCCOCCOCC(=O)NCCCC[C@H](NC(=O)[C@H](CC(=O)O)NC(=O)[C@H](CO)NC(=O)[C@@H](NC(=O)[C@H](Cc1ccccc1)NC(=O)[C@@H](NC(=O)CNC(=O)[C@H](CCC(N)=O)NC(=O)C(C)(C)NC(=O)[C@@H](N)Cc1c[nH]cn1)[C@@H](C)O)[C@@H](C)O)C(=O)N[C@@H](CO)C(=O)N[C@@H](CCCCN)C(=O)N[C@@H](Cc1ccc(O)cc1)C(=O)N[C@@H](CC(C)C)C(=O)N[C@@H](CC(=O)O)C(=O)N[C@H]1CSCc2cccc(c2)CSC[C@@H](C(=O)N[C@@H](CC(=O)O)C(=O)N[C@@H](Cc2ccccc2)C(=O)N[C@H](C(=O)N[C@@H](CCC(N)=O)C(=O)N[C@@H](Cc2c[nH]c3ccccc23)C(=O)N[C@@H](CC(C)C)C(=O)N[C@@H](CCSC)C(=O)N[C@@H](CC(N)=O)C(=O)N[C@H](C(=O)N[C@@H](CCCCN)C(=O)O)[C@@H](C)O)C(C)C)NC(=O)[C@H](C)NC(=O)[C@H](CCCNC(=N)N)NC(=O)[C@H](CCCNC(=N)N)NC1=O)C(=O)O [Compound 22, H-HAibQGTFTSDZSKYLDCRRACDFVQWLMNTK-OH]
EC50 (Human GLP-1 receptors): < 0.01 nM
EC50 (Human glucagon receptors): < 0.01 nM

CCCCCCCCCCCCCCCCCC(=O)N[C@@H](CCC(=O)NCCOCCOCC(=O)NCCOCCOCC(=O)NCCOCCOCC(=O)NCCOCCOCC(=O)NCCCC[C@H](NC(=O)[C@H](CC(=O)O)NC(=O)[C@H](CO)NC(=O)[C@@H](NC(=O)[C@H](Cc1ccccc1)NC(=O)[C@@H](NC(=O)CNC(=O)[C@H](CCC(N)=O)NC(=O)C(C)(C)NC(=O)[C@@H](N)Cc1c[nH]cn1)[C@@H](C)O)[C@@H](C)O)C(=O)N[C@@H](CO)C(=O)N[C@@H](CCCCN)C(=O)N[C@@H](Cc1ccc(O)cc1)C(=O)N[C@@H](CC(C)C)C(=O)N[C@@H](CC(=O)O)C(=O)N[C@H]1CCC(=O)NCCCC[C@@H](C(=O)N[C@@H](CC(=O)O)C(=O)N[C@@H](Cc2ccccc2)C(=O)N[C@H](C(=O)N[C@@H](CCC(N)=O)C(=O)N[C@@H](Cc2c[nH]c3ccccc23)C(=O)N[C@@H](CC(C)C)C(=O)N[C@@H](CCSC)C(=O)N[C@@H](CC(N)=O)C(=O)N[C@H](C(=O)N[C@@H](CCCCN)C(N)=O)[C@@H](C)O)C(C)C)NC(=O)[C@H](C)NC(=O)[C@H](CCCNC(=N)N)NC(=O)[C@H](CCCNC(=N)N)NC1=O)C(=O)O [Compound 24, H-HAibQGTFTSDZSKYLDERRAKDFVQWLMNTK-NH2]
EC50 (Human GLP-1 receptors): < 0.01 nM
EC50 (Human glucagon receptors): 0.01 to 0.1 nM

CCCCCCCCCCCCCCCCCC(=O)N[C@@H](CCC(=O)NCCOCCOCC(=O)NCCOCCOCC(=O)NCCOCCOCC(=O)NCCOCCOCC(=O)NCCCC[C@H](NC(=O)[C@H](CC(=O)O)NC(=O)[C@H](CO)NC(=O)[C@@H](NC(=O)[C@H](Cc1ccccc1)NC(=O)[C@@H](NC(=O)CNC(=O)[C@H](CCC(N)=O)NC(=O)C(C)(C)NC(=O)[C@@H](N)Cc1c[nH]cn1)[C@@H](C)O)[C@@H](C)O)C(=O)N[C@@H](CO)C(=O)N[C@@H](CCCCN)C(=O)N[C@@H](Cc1ccc(O)cc1)C(=O)N[C@@H](CC(C)C)C(=O)N[C@@H](CC(=O)O)C(=O)N[C@H]1CCC(=O)NCCCC[C@@H](C(=O)N[C@@H](CC(=O)O)C(=O)N[C@@H](Cc2ccccc2)C(=O)N[C@H](C(=O)N[C@@H](CCC(N)=O)C(=O)N[C@@H](Cc2c[nH]c3ccccc23)C(=O)N[C@@H](CC(C)C)C(=O)N[C@@H](CCSC)C(=O)N[C@@H](CC(N)=O)C(=O)N[C@H](C(=O)N[C@@H](CCCCN)C(=O)O)[C@@H](C)O)C(C)C)NC(=O)[C@H](C)NC(=O)[C@H](CCCNC(=N)N)NC(=O)[C@H](CCCNC(=N)N)NC1=O)C(=O)O [Compound 25, H-HAibQGTFTSDZSKYLDERRAKDFVQWLMNTK-OH]
EC50 (Human GLP-1 receptors): < 0.01 nM
EC50 (Human glucagon receptors): < 0.01 nM
